Tests used:
MALME-3M = assay: Anticancer activity, SRB assay, melanoma cell line MALME-3M; type: cell-based; conditions: Homo sapiens; Melanoma MALME-3M; 48 h continuous drug exposure; read-out: Growth Inhibition GI50
Experimental: (§1) Some of biological activity studies were carried out at the National Cancer Institute (NCI), Maryland, USA.
(§2) The compounds were evaluated for anticancer activity against sixty human cancer cells derived from nine cancer types (leukemia cell line, non-small-cell lung cell line, colon cell line, CNS cell line, melanoma cell line, ovarian cell line, prostate cell line, renal cell line and breast cancer cell line) as shown in Table 1. For each compound, dose response curves for each cell line were measured at a minimum of five concentrations at 10 fold dilutions. A protocol of 48 h continuous drug exposure was used and a sulforhodamine B (SRB) protein assay was used to estimate cell viability or growth.

SR = assay: Anticancer activity, SRB assay, leukemia cell line SR; type: cell-based; conditions: Homo sapiens, 48 h continuous drug exposure, read-out: Growth Inhibition GI50
Experimental: as §1, §2

SNB-19 = assay: Anticancer activity, SRB assay, CNS cell line SNB-19; type: cell-based, human; conditions: Homo sapiens; CNS SNB-19; 48 h continuous drug exposure; —^b means GI50 values not attained at the concentrations used; read-out: Growth Inhibition GI50
Experimental: as §1, §2

K-562 = assay: Anticancer activity, SRB assay, leukemia cell line K-562; type: cell-based; conditions: Homo sapiens, K562; Leukemia K-562; 48 h continuous drug exposure; read-out: Growth Inhibition GI50
Experimental: as §1, §2

SF-268 = assay: Anticancer activity, SRB assay, CNS cell line SF-268; type: cell-based, human; conditions: Homo sapiens; CNS SF-268; 48 h continuous drug exposure; —^b means GI50 values not attained at the concentrations used; read-out: Growth Inhibition GI50
Experimental: as §1, §2

UO-31 = assay: Anticancer activity, SRB assay, renal cell line UO-31; type: cell-based, human; conditions: Homo sapiens; Renal UO-31; 48 h continuous drug exposure; —^b means GI50 values not attained at the concentrations used; read-out: Growth Inhibition GI50
Experimental: as §1, §2

A549/ATCC = assay: Anticancer activity, SRB assay, non-small lung cell line A549/ATCC; type: cell-based, human; conditions: Homo sapiens, 48 h continuous drug exposure, —^b means GI50 values not attained at the concentrations used, read-out: Growth Inhibition GI50
Experimental: as §1, §2

SK-MEL-28 = assay: Anticancer activity, SRB assay, melanoma cell line SK-MEL-28; type: cell-based, human; conditions: Homo sapiens; Melanoma SK-MEL-28; 48 h continuous drug exposure; —^b means GI50 values not attained at the concentrations used; read-out: Growth Inhibition GI50
Experimental: as §1, §2

UACC-62 = assay: Anticancer activity, SRB assay, melanoma cell line UACC-62; type: cell-based; conditions: Homo sapiens; Melanoma UACC-62; 48 h continuous drug exposure; read-out: Growth Inhibition GI50
Experimental: as §1, §2

MDA-MB-468 = assay: Anticancer activity, SRB assay, breast cell line MDA-MB-468; type: cell-based; conditions: Homo sapiens; Breast MDA-MB-468; 48 h continuous drug exposure; read-out: Growth Inhibition GI50
Experimental: as §1, §2

[1] = system: six breast cancer cell line (MCF-7, MDA-MB-231/ATCC, HS 578T, TD-47D, MDA-MB-468 and BT-549); assay: Anticancer activity, SRB assay, breast panel; type: cell-based, human
Experimental: as §1, §2

CCRF-CEM = assay: Anticancer activity, SRB assay, leukemia cell line CCRF-CEM; type: cell-based, human; conditions: Homo sapiens, 48 h continuous drug exposure, —^b means GI50 values not attained at the concentrations used, read-out: Growth Inhibition GI50
Experimental: as §1, §2

SW-620 = assay: Anticancer activity, SRB assay, colon cell line SW-620; type: cell-based; conditions: Homo sapiens; Colon SW-620; 48 h continuous drug exposure; read-out: Growth Inhibition GI50
Experimental: as §1, §2

HT29 = assay: Anticancer activity, SRB assay, colon cell line HT29; type: cell-based; conditions: Homo sapiens, HT-29, 48 h continuous drug exposure, read-out: Growth Inhibition GI50
Experimental: as §1, §2

MDA-MB-435 = assay: Anticancer activity, SRB assay, melanoma cell line MDA-MB-435; type: cell-based, human; conditions: Homo sapiens; Melanoma MDA-MB-435; 48 h continuous drug exposure; —^b means GI50 values not attained at the concentrations used; read-out: Growth Inhibition GI50
Experimental: as §1, §2

786-0 = assay: Anticancer activity, SRB assay, renal cell line 786-0; type: cell-based, human; conditions: Homo sapiens; Renal 786-0; 48 h continuous drug exposure; —^b means GI50 values not attained at the concentrations used; read-out: Growth Inhibition GI50
Experimental: as §1, §2

SNB-75 = assay: Anticancer activity, SRB assay, CNS cell line SNB-75; type: cell-based, human; conditions: Homo sapiens; CNS SNB-75; 48 h continuous drug exposure; —^b means GI50 values not attained at the concentrations used; read-out: Growth Inhibition GI50
Experimental: as §1, §2

NCI-H460 = assay: Anticancer activity, SRB assay, non-small lung cell line NCI-H460; type: cell-based; conditions: Homo sapiens, Non-small lung NCl-H460, 48 h continuous drug exposure, read-out: Growth Inhibition GI50
Experimental: as §1, §2

MDA-MB-231/ATCC = assay: Anticancer activity, SRB assay, breast cell line MDA-MB-231/ATCC; type: cell-based; conditions: Homo sapiens; Breast MDA-MB-231/ATCC; 48 h continuous drug exposure; read-out: Growth Inhibition GI50
Experimental: as §1, §2

OVCAR-4 = assay: Anticancer activity, SRB assay, ovarian cell line OVCAR-4; type: cell-based, human; conditions: Homo sapiens; Ovarian OVCAR-4; 48 h continuous drug exposure; —^b means GI50 values not attained at the concentrations used; read-out: Growth Inhibition GI50
Experimental: as §1, §2

[2] = Anticancer activity, SRB assay, melanoma panel; type: cell-based, human; conditions: Homo sapiens; nine melanoma cancer cell line; exposure period of at least 48 h; read-out: GI50 (range over the panel)
Experimental: as §1, §2

[3] = system: nine melanoma cancer cell line (LOX IMVI, MALME-3M, M14, MDA-MB-435, SK-MEL-2, SK-MEL-28, SK-MEL-5, UACC-257 and UACC-62); assay: Anticancer activity, SRB assay, melanoma panel; type: cell-based, human; conditions: Melanoma
Experimental: as §1, §2

ACHN = assay: Anticancer activity, SRB assay, renal cell line ACHN; type: cell-based, human; conditions: Homo sapiens, 48 h continuous drug exposure, —^b means GI50 values not attained at the concentrations used, read-out: Growth Inhibition GI50
Experimental: as §1, §2

[4] = system: seven colon cancer cell line (COLO 205, HCC-2998, HCT-116, HCT-15, HT29, KM12 and SW-620); assay: Anticancer activity, SRB assay, colon panel; type: cell-based, human
Experimental: as §1, §2

RPMI-8226 = assay: Anticancer activity, SRB assay, leukemia cell line RPMI-8226; type: cell-based; conditions: Homo sapiens; Leukemia RPMI-8226; 48 h continuous drug exposure; read-out: Growth Inhibition GI50
Experimental: as §1, §2

SF-295 = assay: Anticancer activity, SRB assay, CNS cell line SF-295; type: cell-based, human; conditions: Homo sapiens; CNS SF-295; 48 h continuous drug exposure; —^b means GI50 values not attained at the concentrations used; read-out: Growth Inhibition GI50
Experimental: as §1, §2

HOP-62 = assay: Anticancer activity, SRB assay, non-small lung cell line HOP-62; type: cell-based, human; conditions: Homo sapiens; Non-small lung HOP-62; 48 h continuous drug exposure; —^b means GI50 values not attained at the concentrations used; read-out: Growth Inhibition GI50
Experimental: as §1, §2

Cc1cc(C#Cc2ccccc2)ccc1-n1c(/C=C/c2cc(O)ccc2O)nc2ccccc2c1=O [Compound 4c, (E)-2-(2,5-Dihydroxystyryl)-3-(2-methyl-4-(phenylethynyl)phenyl)quinazolin-4(3H)-one]
GI50 (MALME-3M): 1.5 µM | GI50 (SR): 1.1 µM | GI50 (SNB-19): 1.62 µM | GI50 (K-562): 1.42 µM | GI50 (SF-268): 1.31 µM | GI50 (UO-31): 1.16 µM | GI50 (A549/ATCC): 1.28 µM | GI50 (SK-MEL-28): 1.53 µM | GI50 (UACC-62): 1.52 µM | GI50 (MDA-MB-468): 1.61 µM | mean graph midpoint values (MG_MID) of log10 TGI (Log10TGI50) ([1]; Breast, log value of concentration of the compound resulting in total inhibition of net cell growth): −5.39 | mean graph midpoint values (MG_MID) of Log10LC50 ([1]; Breast, log value of the concentration of compounds leading to 50% net cell death): −4.66 | mean graph midpoint values (MG_MID) of Log10GI50 ([1]; Breast, log values of concentration in mol/L causing 50% inhibition of net cell growth): −5.84 mol/L | GI50 ([1]; Homo sapiens, six breast cancer cell line, exposure period of at least 48 h, read-out: GI50 (range over the panel)): 1.14 to 1.61 µM | GI50 (CCRF-CEM): 1.54 µM | GI50 (SW-620): 1.71 µM | GI50 (HT29): 1.95 µM | GI50 (MDA-MB-435): 1.67 µM | GI50 (786-0): 1.74 µM | GI50 (SNB-75): 1.3 µM | GI50 (NCI-H460): 1.57 µM | GI50 (MDA-MB-231/ATCC): 1.56 µM | GI50 (OVCAR-4): 2.4 µM | GI50 [2]: 1.35 to 1.67 µM | mean graph midpoint values (MG_MID) of log10 TGI (Log10TGI50) ([3]; log value of concentration of the compound resulting in total inhibition of net cell growth): −5.52 | mean graph midpoint values (MG_MID) of Log10LC50 ([3]; log value of the concentration of compounds leading to 50% net cell death): −5.22 | mean graph midpoint values (MG_MID) of Log10GI50 ([3]; log values of concentration in mol/L causing 50% inhibition of net cell growth): −5.83 mol/L | GI50 (ACHN): 1.44 µM | mean graph midpoint values (MG_MID) of log10 TGI (Log10TGI50) ([4]; Colon, log value of concentration of the compound resulting in total inhibition of net cell growth): −5.53 | mean graph midpoint values (MG_MID) of Log10LC50 ([4]; Colon, log value of the concentration of compounds leading to 50% net cell death): −5.23 | mean graph midpoint values (MG_MID) of Log10GI50 ([4]; Colon, log values of concentration in mol/L causing 50% inhibition of net cell growth): −5.83 mol/L | GI50 ([4]; Homo sapiens, seven colon cancer cell line, exposure period of at least 48 h, read-out: GI50 (range over the panel)): 1.03 to 1.95 µM | GI50 (RPMI-8226): 1.26 µM | GI50 (SF-295): 1.35 µM | GI50 (HOP-62): 1.71 µM

Reference: patent US8680272B2, “3-arylethynyl substituted quinazolinone compounds” (Council of Scientific & Industrial Research, priority 2011, dated 2014)
